The text below walks through data of article PMC9303812, “Asymmetrically Substituted m‐Terphenyl Phosphates Inhibit the Transcription Factor STAT5a” (Chembiochem, 2021).

Like-named read-outs stand apart in the source and are kept apart here.

The target of one series is T1, STAT5a (Homo sapiens, UniProt P42229).
T1 sequence (P42229 1-794): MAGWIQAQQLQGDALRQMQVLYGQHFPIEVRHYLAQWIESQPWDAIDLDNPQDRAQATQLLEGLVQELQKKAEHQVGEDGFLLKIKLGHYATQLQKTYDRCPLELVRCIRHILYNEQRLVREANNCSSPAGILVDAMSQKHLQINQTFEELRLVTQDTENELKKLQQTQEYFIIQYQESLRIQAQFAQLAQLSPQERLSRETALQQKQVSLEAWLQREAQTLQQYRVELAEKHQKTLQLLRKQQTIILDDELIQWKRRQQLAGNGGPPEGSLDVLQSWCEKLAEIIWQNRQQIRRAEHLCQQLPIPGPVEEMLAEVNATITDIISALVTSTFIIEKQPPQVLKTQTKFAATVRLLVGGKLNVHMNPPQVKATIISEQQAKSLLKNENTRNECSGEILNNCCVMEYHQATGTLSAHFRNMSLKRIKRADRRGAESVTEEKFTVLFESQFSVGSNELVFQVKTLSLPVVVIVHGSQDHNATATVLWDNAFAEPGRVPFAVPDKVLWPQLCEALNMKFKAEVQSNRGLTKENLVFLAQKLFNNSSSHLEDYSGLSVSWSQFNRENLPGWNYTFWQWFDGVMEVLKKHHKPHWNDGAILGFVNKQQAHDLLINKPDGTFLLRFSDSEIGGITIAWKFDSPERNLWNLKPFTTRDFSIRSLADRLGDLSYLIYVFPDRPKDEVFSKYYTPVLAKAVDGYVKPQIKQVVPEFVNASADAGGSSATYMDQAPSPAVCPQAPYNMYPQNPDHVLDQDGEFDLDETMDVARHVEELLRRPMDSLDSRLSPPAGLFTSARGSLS
As to the kind of experiment: Fluorescence polarization (FP) binding assay, STAT5a. Conditions: for selectivity with respect to other STAT family members: FP assays against STAT1, STAT3, STAT4, STAT6. The procedure:
Table S1: Activities of test compounds against STAT5a and STAT5b in FP assays . Experiments were carried out in triplicate (n = 3) unless stated otherwise. n/a: not applicable.
[a]data taken from the literature.[1]
Ki values were calculated from IC50 values using the published equation.[2] […]
Table S2: Activities of 12 against STAT5 proteins in FP assays.
Fluorescence polarization assays
Fluorescence polarization assays were essentially carried out as previously described.[1] These assays quantitate to which extent a test compound is able to interfere with binding between a STAT protein and a fluorescein-labeled phosphotyrosine-containing peptide, which is known to bind to the SH2 domain of the respective STAT protein. The following protein […]
concentrations were used: 100 nM for STAT1, 150 nM for STAT3, 30 nM for STAT4, 180 nM for STAT5a, 90 nM for STAT5b and 105 nM for STAT6. All peptides were used at a concentration of 10 nM. The following peptides were used: 5 -carboxyfluorescein -GpYDKPHVL for STAT1; 5-carboxyfluorescein -GpYLPQTV-NH2 for STAT3; 5-carboxyfluorescein-GpYLPQNID-OH for STAT4; 5-carboxyfluorescein-GpYLVLDKW for STAT5a/b, and 5-carboxyfluorescein-GpYVPWQDLI-OH for STAT6. As a buffer system, 10 mM Tris (pH 8.0), 50 mM NaCl, 1 mM EDTA, 1 mM DTT, 0.1 % Nonidet P-40 substitute, and 2 % DMSO in water was used. All compounds tested were incubated for 1 h with the protein. Subsequently, the fluorescein-labeled peptide was added and the fluorescence polarization was measured with an Infinite F500 plate reader (Tecan) after another hour. IC50 values were converted to Ki-values using the published equation.[2]
(Polarisation of emitted light reports the rotation of a fluorescent probe.)

In general, IC50 refers to the midpoint of a concentration-inhibition curve. Broadly, the Ki is a measure of affinity in units of concentration, obtained from inhibition or displacement. For orientation: melting point means the temperature, or range, at which the solid turns liquid. With `COc1cc(-c2cc(OP(=O)(O)O)cc(-c3cc(F)c(F)c(F)c3)c2)cc(OC)c1OC` [6 b], the melting point was greater than 260 °C. On STAT5a, the IC50 turned out to be 22.1 ± 0.4 µM, the Ki is 10.9 ± 0.2 µM and the “selectivity with respect to other STAT family members” value was “good selectivity”.
For the molecule `COc1cc(-c2cc(-c3cc(F)c(F)c(F)c3)cc(C(F)P(=O)(O)O)c2)cc(OC)c1OC` (stereo not shown) [compound 12], the Ki on STAT5a (FP assay, Ki calculated from IC50 (n=3; 6 a n=2), read-out: STAT5a Ki) is 20 ± 2.1 µM. Moreover, the IC50 at STAT5a (FP assay, n=3 (6a n=2), read-out: STAT5a IC50) is 40.4 ± 4.3 µM. Also, the “selectivity with respect to other STAT family members” value on STAT5a is “retains selectivity”.
